Measured values taken from patent publication US12590294B2, “Process for producing cardiomyocytes” (Oxford University Innovation Limited, priority 2020, dated 2026).

What was measured:
[1] = tested on: hiPSC derived atrial cardiomyocytes; experiment: Ca2+ transient imaging (Fluo4 optical mapping) with adrenergic agonists and antagonists; type: cell-based, human
Description: (§1) Optical mapping experiments were carried out after the cells started to contract. The responsiveness of the derived CMs in the experimental group to β and α adrenergic receptor agonists and antagonists was measured. Intracellular calcium transients were analysed using a 128×128 EMCCD camera (Photometrics, Tucson, USA). The derived CMs were pre-loaded with 1 μM Fluo4 (Molecular Probes by Life Technologies) dissolved in DMSO for 15 min at 37° C. in CMM. Calcium transients of the derived CMs were first recorded without the addition of the drugs as control. Recordings were then taken at 0 min, 5 min, 10 min and 15 min after 100 nM Isoprenaline (ISO) treatment. Using the same method, the responsiveness of the derived CMs in the experimental group to 10 μM Phenylephrine (PE) treatment was tested. […] Recordings were taken in the same way as described above. Similarly, the cells were pre-treated with 1 μM Prazosin dissolved in Fluo4 loading solution before a treatment of 10 μM PE. Metamorph was used to take the recordings, and 4000 or 8000 frames were taken for each recording, with a frame rate of 100 Hz (for 4000 frames) or 333.33 Hz (for 8000 frames). Regions of interest were selected using ImageJ. Raw traces were analysed and baseline corrections were conducted using Clampfit. Calcium transient amplitude change was calculated based on averaged trace. Part of the analysis was performed using custom MATLAB algorithms. To calculate beat-to-beat CaT50, the mean signal was segmented into individual beats. Representative regions were defined as two 16 by 16 pixel regions.
as §1, with “β and a adrenergic receptor” for “β and α adrenergic receptor”, “traces were analyzed and baseline” for “traces were analysed and baseline”, “was performed by the collaborator group from University of Birmingham using custom” for “was performed using custom”
We also tested whether hiPSC derived atrial cardiomyocytes responded to adrenoceptor stimulation by a or p adrenoceptor agonists. The presence of a functional al-adrenoceptor signaling pathway was first tested by exposure of hiPSC derived atrial cardiomyocytes to phenylephrine, which in adult atrial CMs increases the amplitude of Ca^2+ transients. Phenylephrine is an al-adrenoceptor agonist coupled to Gq and the mechanism of increase in Ca^2+ transient amplitude is associated with an increase cellular IP3 levels. Atrial cardiomyocytes from Days 25-30 post initiation of differentiating human iPSC derived atrial cardiomyocytes were used to assess the effect of phenylephrine on Ca^2+ transient amplitude. […]

[2] = tested on: monolayer HiPSC-AM sheets; experiment: Optical mapping of monolayer HiPSC-AM sheets, adrenergic stress induced CaT alternans; type: cell-based, human; conditions: 100 nM ISO; regular pacing at 0.5-1 Hz
Description: Optical mapping experiments were carried out after the cells started to contract. The responsiveness of the derived CMs in the experimental group to β and a adrenergic receptor agonists and antagonists was measured. Intracellular calcium transients were analysed using a 128×128 EMCCD camera (Photometrics, Tucson, USA). The derived CMs were pre-loaded with 1 μM Fluo4 (Molecular Probes by Life Technologies) dissolved in DMSO for 15 min at 37° C. in CMM. Calcium transients of the derived CMs were first recorded without the addition of the drugs as control. Recordings were then taken at 0 min, 5 min, 10 min and 15 min after 100 nM Isoprenaline (ISO) treatment. Using the same method, the responsiveness of the derived CMs in the experimental group to 10 μM Phenylephrine (PE) treatment was tested. In adrenergic receptor antagonist tests, the cells were pre-treated with 600 nM CGP20712A (CGP) (Sigma) dissolved in Fluo4 loading solution prior to 100 nM ISO treatment. Recordings were taken in the same way as described above. Similarly, the cells were pre-treated with 1 μM Prazosin dissolved in Fluo4 loading solution before a treatment of 10 μM PE. […] Raw traces were analyzed and baseline corrections were conducted using Clampfit. Calcium transient amplitude change was calculated based on averaged trace. […]

## Cn1cc(C(F)(F)F)nc1-c1ccc(OCC(O)CNCCOc2ccc(O)c(C(N)=O)c2)cc1 (centres unmarked) [CGP20712A]
[1]; 600 nM GCP pre-treated, recorded 10 min after 10 uM PE (so in the source)
  effects of adrenergic stimulation after β-adrenergic antagonist pre-treatment: abolished
[1]; CGP20712A 300 nM alone
  effect on the amplitude of Ca2+ transients, antagonist by itself: no effect

## CC(C)NCC(O)c1ccc(O)c(O)c1 (centres unmarked) [isoproterenol]
[1]; isoproterenol 100 nM, n=5 batch of cells
  increase in the amplitude of Ca2+ transients: 26±5%
[1]; isoproterenol with CGP20712A (300 nM) present, n=5 batch of cells
  effect on the amplitude of Ca2+ transients when CGP20712A was present: without effect
[2]
  CaT alternans: occurred

## COc1cc2nc(N3CCN(C(=O)c4ccco4)CC3)nc(N)c2cc1OC [prazosin]
[1]; 1 μM prazosin alone
  effect on the amplitude of Ca2+ transients, antagonist by itself: no effect
[1]; 1 uM prazosin pre-treated, recorded 10 min after 10 uM PE
  effects of adrenergic stimulation by 10 uM PE after antagonist pre-treatment: abolished

## CNC[C@H](O)c1cccc(O)c1 [phenylephrine]
[1]; 10 μM phenylephrine
  effect on Ca2+ transient decay time: no effect
  effect on Ca2+ transient rise time: no effect
[1]; 10 μM phenylephrine in the presence of prazosin, n=5 batch of cells
  change in the amplitude of Ca2+ transients in the presence of prazosin: did not cause any significant change
[1]; 10 μM phenylephrine, fluo-4 fluorescence, Days 25-30, n=5 batch of cells
  increase in Ca2+ transient amplitude: 28±10%
